{
  "source": "ChEMBL document CHEMBL4028814",
  "about": "“Thiazolidine derivatives as potent and selective inhibitors of the PIM kinase family” (Bioorg Med Chem, 2017)",
  "key": {"[1]": {"molecular_target": "Serine/threonine-protein kinase PLK1 (Homo sapiens) (UniProt P53350)", "sequence (P53350 whole entry, the tested form may be a part)": "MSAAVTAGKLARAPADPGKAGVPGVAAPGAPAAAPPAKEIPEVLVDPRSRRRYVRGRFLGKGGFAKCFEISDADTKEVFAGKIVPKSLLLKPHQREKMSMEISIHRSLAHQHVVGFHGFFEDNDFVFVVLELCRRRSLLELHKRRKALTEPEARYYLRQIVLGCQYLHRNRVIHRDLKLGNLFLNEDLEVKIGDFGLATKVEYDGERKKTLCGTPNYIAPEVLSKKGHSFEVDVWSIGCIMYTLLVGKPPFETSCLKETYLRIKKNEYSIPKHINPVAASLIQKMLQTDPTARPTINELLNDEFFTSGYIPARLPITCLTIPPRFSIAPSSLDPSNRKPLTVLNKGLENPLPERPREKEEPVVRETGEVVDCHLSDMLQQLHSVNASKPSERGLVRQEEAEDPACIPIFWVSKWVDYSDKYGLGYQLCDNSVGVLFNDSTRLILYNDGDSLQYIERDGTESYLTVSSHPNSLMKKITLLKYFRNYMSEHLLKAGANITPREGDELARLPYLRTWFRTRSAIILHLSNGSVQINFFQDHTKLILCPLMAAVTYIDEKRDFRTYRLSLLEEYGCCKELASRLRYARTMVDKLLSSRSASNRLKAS", "experiment": "Inhibition of partial length wild-type human PLK1 (A33 to F325 residues) expressed in mammalian expression system assessed as residual activity at 10 uM by KINOMEscan assay relative to control"}, "[2]": {"molecular_target": "Mast/stem cell growth factor receptor Kit (Homo sapiens) (UniProt P10721)", "sequence (P10721 whole entry, the tested form may be a part)": "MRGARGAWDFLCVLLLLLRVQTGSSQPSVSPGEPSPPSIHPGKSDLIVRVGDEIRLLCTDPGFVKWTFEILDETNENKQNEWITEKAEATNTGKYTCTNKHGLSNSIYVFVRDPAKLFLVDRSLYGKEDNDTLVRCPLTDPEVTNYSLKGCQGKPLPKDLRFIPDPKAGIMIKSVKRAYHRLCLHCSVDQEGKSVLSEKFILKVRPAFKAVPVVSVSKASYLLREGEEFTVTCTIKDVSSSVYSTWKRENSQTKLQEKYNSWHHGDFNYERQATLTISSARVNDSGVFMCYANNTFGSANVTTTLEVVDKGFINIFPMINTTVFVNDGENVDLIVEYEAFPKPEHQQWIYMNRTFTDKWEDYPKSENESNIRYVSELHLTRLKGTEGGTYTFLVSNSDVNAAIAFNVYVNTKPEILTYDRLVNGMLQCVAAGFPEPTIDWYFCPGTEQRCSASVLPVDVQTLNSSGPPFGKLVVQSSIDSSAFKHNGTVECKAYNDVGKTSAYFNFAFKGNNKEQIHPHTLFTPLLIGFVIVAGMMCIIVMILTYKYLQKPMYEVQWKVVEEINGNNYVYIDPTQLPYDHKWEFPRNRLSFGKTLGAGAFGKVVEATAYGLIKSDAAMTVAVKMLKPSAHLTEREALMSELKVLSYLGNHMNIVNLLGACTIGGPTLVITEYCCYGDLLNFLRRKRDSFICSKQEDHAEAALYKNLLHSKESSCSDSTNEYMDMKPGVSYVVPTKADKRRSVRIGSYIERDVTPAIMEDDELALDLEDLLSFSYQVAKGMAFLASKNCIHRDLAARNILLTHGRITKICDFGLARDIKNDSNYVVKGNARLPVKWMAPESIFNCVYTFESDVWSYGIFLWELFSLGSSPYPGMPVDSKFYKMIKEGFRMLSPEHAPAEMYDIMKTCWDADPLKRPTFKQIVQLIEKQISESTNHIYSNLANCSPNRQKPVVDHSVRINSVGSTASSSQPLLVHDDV", "experiment": "Inhibition of partial length wild type human c-Kit (I571 to D952 residues) expressed in bacterial expression system assessed as residual activity at 10 uM by KINOMEscan assay relative to control"}, "[3]": {"molecular_target": "T1, Serine/threonine-protein kinase Chk1 (Homo sapiens) (UniProt O14757)", "T1 sequence (whole entry)": "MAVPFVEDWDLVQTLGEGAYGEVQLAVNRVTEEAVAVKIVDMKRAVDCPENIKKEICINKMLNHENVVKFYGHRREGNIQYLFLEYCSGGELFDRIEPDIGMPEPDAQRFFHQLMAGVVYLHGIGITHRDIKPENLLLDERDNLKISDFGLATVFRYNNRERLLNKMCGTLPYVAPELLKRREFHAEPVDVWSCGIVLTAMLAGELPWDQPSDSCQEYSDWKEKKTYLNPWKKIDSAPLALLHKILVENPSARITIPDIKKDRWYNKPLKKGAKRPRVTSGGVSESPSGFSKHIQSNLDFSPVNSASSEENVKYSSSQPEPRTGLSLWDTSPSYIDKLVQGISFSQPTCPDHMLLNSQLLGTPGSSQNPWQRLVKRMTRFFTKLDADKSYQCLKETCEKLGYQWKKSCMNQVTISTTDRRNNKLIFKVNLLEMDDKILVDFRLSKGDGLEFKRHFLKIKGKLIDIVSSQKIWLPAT", "experiment": "Inhibition of partial length wild type human CHK1 (M1 to G289 residues) expressed in bacterial expression system assessed as residual activity at 10 uM by KINOMEscan assay relative to control"}},
  "data": [
    {"smiles": "O=C1NC(=S)S/C1=C\\c1csc(-c2ccc(C(F)(F)F)cc2)n1", "values": [
      {"measurement": "Activity", "setting": "[1]", "value": 103, "unit": "%"},
      {"measurement": "Activity", "setting": "[2]", "value": 101, "unit": "%"},
      {"measurement": "Activity", "setting": "[3]", "value": 108, "unit": "%"}
    ]}
  ]
}
